Values quoted from earlier work in patent US5876715A, “Antibodies that bind novel carbohydrate ligands (myelorollins) that cause E-selectin dependent cell rolling, and uses thereof” (The Biomembrane Institute, priority 1996, dated 1999).

Assays:
[1] = rat, IgG immune complex lung injury; Mulligan et al. 1993; cited from earlier work
[2] = tested on: E-selectin expressing CHO cells; conditions: shear stress of 0.78 dyne/cm^2; J. Immunol. 154:5356-5366 (1995); cited from earlier work

IV^3 NeuAcIII^3 FucnLc4 Cer [SLe^x]
effect against inflammatory vascular injury [1]: provides protective effects against inflammatory vascular injury
tethering of E-selectin expressing CHO cells [2]: tethered
